As usually defined, the EC50 is the midpoint of the concentration-response curve.

The experiment deals with T1, GLP-1R (Homo sapiens, UniProt P43220).
T1 construct: host or cells: CRE-bla CHO-K1
T1 sequence (P43220 24-463): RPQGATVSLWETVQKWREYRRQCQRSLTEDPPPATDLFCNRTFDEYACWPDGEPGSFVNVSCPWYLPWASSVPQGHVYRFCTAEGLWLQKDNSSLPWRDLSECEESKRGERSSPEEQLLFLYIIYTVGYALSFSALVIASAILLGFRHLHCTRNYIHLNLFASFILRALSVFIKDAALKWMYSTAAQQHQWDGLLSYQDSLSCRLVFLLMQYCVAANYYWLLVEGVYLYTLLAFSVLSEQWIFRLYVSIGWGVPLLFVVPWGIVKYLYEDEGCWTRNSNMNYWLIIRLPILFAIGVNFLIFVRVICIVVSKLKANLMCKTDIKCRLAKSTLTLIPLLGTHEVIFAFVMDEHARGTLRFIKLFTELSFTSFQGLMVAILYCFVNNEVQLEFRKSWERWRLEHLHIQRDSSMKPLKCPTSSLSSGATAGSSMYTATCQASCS
T1 sequence (P01275 100-127 partner limits assumed): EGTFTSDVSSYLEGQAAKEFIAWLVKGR
Briefly: EC20 GLP-1(9-36) PAM cAMP Assay: dose response of compound in the presence of fixed concentration of GLP-1(9-36). It is filed as cell-based. Conditions: GLP-1R CRE-bla CHO-K1 cells, in presence of fixed concentration of GLP-1(9-36), 30 min at 37° C. A digest of the protocol: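 GLP-1R CRE-bla CHO-K1 cells in HBSS/10 mM Hepes/0.1% BSA, pH 7.4, with IBMX were given a 12-point compound dose-response plus a fixed EC20 level of GLP-1(9-36) for 30 min at 37° C. cAMP was measured by luminescence, converted via a standard curve, and EC50 and Emax were fitted by non-linear regression.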
Regarding `CC[C@H]1CC[C@H](C2CC=C(c3cnc(-c4ccc(C[C@H](NC(=O)c5ccc(C(F)(F)F)cc5)C(=O)N5CC(C(=O)O)C5)cc4)nc3)CC2)CC1` (stereo partly drawn) [Compound 100], the EC50 was under 500 nM.
Under `CCC(C)(C)c1ccc(C(=O)N[C@@H](Cc2ccc(-c3ncc(C4=CCC([C@H]5CC[C@H](CC)CC5)CC4)cn3)cc2)C(=O)N2CC(C(=O)O)C2)cc1` (stereo partly drawn) [Compound 101] stands under 500 nM.
In the case of `CC[C@H]1CC[C@H](C2CC=C(c3cnc(-c4ccc(C[C@H](NC(=O)c5ccc(CC(C)C)cc5)C(=O)N5CC(C(=O)O)C5)cc4)nc3)CC2)CC1` (stereo partly drawn) [Compound 102], the concentration for a half-maximal effect (EC50) was 500 to 2500 nM.
Under `CC[C@H]1CC[C@H](C2CC=C(c3cnc(-c4ccc(C[C@H](NC(=O)c5ccc(C(C)C)s5)C(=O)N5CC(C(=O)O)C5)cc4)nc3)CC2)CC1` (stereo partly drawn) [Compound 103] stands under 500 nM.
Take `CC[C@H]1CC[C@H](C2CC=C(c3cnc(-c4ccc(C[C@H](NC(=O)c5ccc(C6CC6)cc5)C(=O)N5CC(C(=O)O)C5)cc4)nc3)CC2)CC1` (stereo partly drawn) [Compound 104]: the 50% effective concentration (EC50) is under 500 nM.
As to `CC[C@H]1CC[C@H](C2CC=C(c3cnc(-c4ccc(C[C@H](NC(=O)c5ccc(C(C)(C)C)s5)C(=O)N5CCC[C@H]5C(=O)O)cc4)nc3)CC2)CC1` (stereo partly drawn) [Compound 105], the concentration giving a half-maximal response (EC50) is under 500 nM.
As to `CC[C@H]1CC[C@H](C2CC=C(c3cnc(-c4ccc(C[C@H](NC(=O)c5ccc(C(C)(C)C)s5)C(=O)N[C@H](C)C(=O)O)cc4)nc3)CC2)CC1` (stereo partly drawn) [Compound 106], the 50% effective concentration (EC50) is under 500 nM.
In the case of `CC[C@H]1CC[C@H](C2CC=C(c3cnc(-c4ccc(C[C@H](NC(=O)c5ccc(C(C)(C)C)s5)C(=O)NCCC(=O)O)cc4)nc3)CC2)CC1` (stereo partly drawn) [Compound 107] it was under 500 nM; in that of `CC[C@H]1CC[C@H](C2CC=C(c3cnc(-c4ccc(C[C@H](NC(=O)c5ccc(C(C)(C)C)s5)C(=O)NCC5CCNC5)cc4)nc3)CC2)CC1` (stereo partly drawn) [Compound 108], 500 to 2500 nM.
Regarding `CC[C@H]1CC[C@H](C2CC=C(c3cnc(-c4ccc(C[C@H](NC(=O)c5ccc(C(C)(C)C)s5)C(=O)N5CC[C@H](C(=O)O)C5)cc4)nc3)CC2)CC1` (stereo partly drawn) [Compound 110, (S)-1-((S)-2-(5-(tert-butyl)thiophene-2-carboxamido)-3-(4-(5-((1RS,1′r,4′RS)-4′-ethyl-[1,1′-bi(cyclohexan)]-3-en-4-yl)pyrimidin-2-yl)phenyl)propanoyl)pyrrolidine-3-carboxylic acid], the EC50 was under 500 nM.
In the case of `CC(C)(C)c1ccc(C(=O)N[C@@H](Cc2ccc(-c3ncc(C4=CCC([C@H]5CC[C@H](C)CC5)CC4)cn3)cc2)C(=O)N2CCC[C@H]2C(=O)O)s1` (stereo partly drawn) [Compound 111] it was under 500 nM; in that of `C[C@@H](NC(=O)[C@H](Cc1ccc(-c2ncc(C3=CCC([C@H]4CC[C@H](C)CC4)CC3)cn2)cc1)NC(=O)c1ccc(C(C)(C)C)s1)C(=O)O` (stereo partly drawn) [Compound 112], under 500 nM.
For the compound `CC(C)(C)c1ccc(C(=O)N[C@@H](Cc2ccc(-c3ncc(C4=CCC([C@H]5CC[C@H](C)CC5)CC4)cn3)cc2)C(=O)NCCC(=O)O)s1` (stereo partly drawn) [Compound 113], the EC50 is under 500 nM.
With `CC(C)(C)c1ccc(C(=O)N[C@@H](Cc2ccc(-c3ncc(C4=CCC([C@H]5CC[C@H](C)CC5)CC4)cn3)cc2)C(=O)NCC2CCNC2)s1` (stereo partly drawn) [Compound 114], the EC50 was in the range of 500 to 2500 nM.
Under `CC(C)(C)c1ccc(C(=O)N[C@@H](Cc2ccc(-c3ncc(C4=CCC([C@H]5CC[C@H](C)CC5)CC4)cn3)cc2)C(=O)NS(C)(=O)=O)s1` (stereo partly drawn) [Compound 115] stands under 500 nM; under `CC(C)(C)c1ccc(C(=O)N[C@@H](Cc2ccc(-c3ncc(C4=CCC([C@H]5CC[C@H](C)CC5)CC4)cn3)cc2)C(=O)N2CC[C@H](C(=O)O)C2)s1` (stereo partly drawn) [Compound 116], under 500 nM; under `CCC[C@H]1CC[C@H](C2CC=C(c3cnc(-c4ccc(C[C@H](NC(=O)c5ccc(C6CC6)s5)C(=O)N5CC(C(=O)O)C5)cc4)nc3)CC2)CC1` (stereo partly drawn) [Compound 117], under 500 nM.
As for `CCC[C@H]1CC[C@H](C2CC=C(c3cnc(-c4ccc(C[C@H](NC(=O)c5ccc(CC(C)C)s5)C(=O)N5CC(C(=O)O)C5)cc4)nc3)CC2)CC1` (stereo partly drawn) [Compound 118], the 50% effective concentration (EC50) was under 500 nM.
Take `CC[C@H]1CC[C@H](C2CC=C(c3cnc(-c4ccc(C[C@H](NC(=O)c5ccc(C(C)(C)C)s5)C(=O)O)cc4)nc3)CC2)CC1` (stereo partly drawn) [Compound 119]: the 50% effective concentration (EC50) was 500 to 2500 nM.
As to `CC(C)(C)c1ccc(C(=O)N[C@@H](Cc2ccc(-c3ncc(C4=CCC(C5CCCCC5)CC4)cn3)cc2)C(=O)O)s1` (stereo partly drawn) [Compound 120], the half-maximal effective concentration (EC50) is 500 to 2500 nM.
On to `CCCc1ccc(C2CC=C(c3cnc(-c4ccc(C[C@H](NC(=O)c5ccc(C(C)(C)C)s5)C(=O)O)cc4)nc3)CC2)cc1` (stereo partly drawn) [Compound 121], for which the EC50 was under 500 nM.
With `CC1(C)CCC(C2CC=C(c3cnc(-c4ccc(C[C@H](NC(=O)c5ccc(C(C)(C)C)s5)C(=O)O)cc4)nc3)CC2)CC1` (stereo partly drawn) [Compound 122], the concentration for a half-maximal effect (EC50) lay in the range of 500 to 2500 nM.
On to `CCCC1CCC(C2CC=C(c3cnc(-c4ccc(C[C@@H](NC(=O)c5ccc(C(C)(C)C)s5)C(=O)N5CC(C(=O)O)C5)cc4)nc3)CC2)CC1` (stereo partly drawn) [Compound 124], for which the EC50 fell in the range of 500 to 2500 nM.
As to `CC[C@H]1CC[C@H](C2CCC(c3cnc(-c4ccc(C[C@H](NC(=O)c5ccc(C(C)(C)C)s5)C(=O)N5CC(C(=O)O)C5)cc4)nc3)CC2)CC1` (stereo partly drawn) [Compound 125], the EC50 was 500 to 2500 nM.

For the origin of these results see patent US9474755B2, “GLP-1 receptor modulators” (Receptos, Inc., priority 2014, dated 2016).
